From paper PMC3135787 (Antiviral research, 2011) come the findings set out here.

The target in data set [1] is recombinant NS5B genotype 3a (Hepatitis C virus genotype 3a, UniProt Q81258). The data set can be described thus: NS5B polymerase assay, genotype 3a. The data set is classed as biochemical, HCV.
In data set [2] the target is S282T genotype 1b NS5B (Con1 strain) (Hepatitis C virus genotype 1b, UniProt Q9WMX2, S2701T). The data set can be described thus: biochemical. Further details: species or system HCV.
The test system of data set [3] is S282T genotype 1b NS5B (Con1 strain). The data set can be described thus: biochemical. Also on record: species or system HCV. The settings on record: genotype 1b RdRp, 5 μM NTPs.
Data set [4] addresses recombinant HCV NS5B genotype 1b (Con1 strain), wild-type (Hepatitis C virus genotype 1b, UniProt Q9WMX2). The data set can be described thus: NS5B polymerase assay, genotype 1b wild-type. The class given is biochemical.
The subject of data set [5] is primary human hepatocytes. The data set can be described thus: Metabolism of [3H]-PSI-353661 in primary human hepatocytes. The class given is in vitro ADME.
Data set [6] concerns the target recombinant NS5B genotype 2a (JFH-1 strain) (Hepatitis C virus genotype 2a, UniProt Q99IB8). The data set can be described thus: NS5B polymerase assay, genotype 2a. The class given is biochemical, HCV.
Data set [7] addresses recombinant NS5B genotype 4a (Hepatitis C virus genotype 4a, UniProt O39929). The data set can be described thus: NS5B polymerase assay, genotype 4a. The class given is biochemical, HCV.

One may read the IC50 as the concentration that gives 50% inhibition. With `C[C@@]1(F)[C@H](O)[C@@H](COP(=O)(O)OP(=O)(O)OP(=O)(O)O)O[C@H]1n1cnc2c(=O)[nH]c(N)nc21` [PSI-352666, 2′-deoxy-2′-α-fluoro-2′-β-C-methylguanosine-5′-triphosphate], the IC50 in data set [1] was found to be 1.3 ± 0.5 µM; in data set [2] it was 9.2 ± 1.4 µM; in data set [4] (IC50, genotype 1b NS5B, 1 μM NTPs) it was 1 ± 0.2 µM; in data set [4] (IC50, wild-type genotype 1b RdRp, 5 μM NTPs) it was 4 ± 1.1 µM; in data set [6] it was 4.7 ± 0.6 µM; in data set [7], 4.2 ± 0.8 µM. Moreover, the “fold difference in IC50, S282T mutant vs wild-type” value in data set [3] is approximately 2 fold. This compound returned an intracellular concentration in data set [5] (after 4 hours of exposure to PSI-353661) of more than 50 µM. Besides, the “time to maximum intracellular concentration” value in data set [5] (continuous exposure to 5 μM [3H]-PSI-353661) is “about 4 hours”.
